Experimental data: patent US11083725B2 (priority 2014, dated 2021)

System: NHBE cells
Assay: Biolog metabolic array: substrate use by NHBE cells with or without CA09 infection
Format: cell-based, human
Details: for Substrate use, 590 nm absorbance normalized to zero hour, 0 hr: Biolog PMM2, 0 hr; for Substrate use, 590 nm absorbance normalized to zero hour, 1 hr: Biolog PMM2, 1 hr; for Substrate use, 590 nm absorbance normalized to zero hour, 5 hr: Biolog PMM2, 5 hr; for Substrate use, 590 nm absorbance normalized to zero hour, 7 hr: Biolog PMM2, 7 hr
[1] = Control (uninfected) NHBE cells
[2] = Virus (CA09-infected NHBE cells, MOI 1)
[3] = Virus: CA09-infected NHBE cells, MOI 1, Biolog PMM2
[4] = Virus (CA09-infected, MOI 1) NHBE cells

SMILES	590 nm absorbance normalized to zero hour (substrate use), 1 hr [1]	590 nm absorbance normalized to zero hour (substrate use), 2 hr [1]	590 nm absorbance normalized to zero hour (substrate use), 3 hr [1]	590 nm absorbance normalized to zero hour (substrate use), 4 hr [1]	590 nm absorbance normalized to zero hour (substrate use), 6 hr [1]	590 nm absorbance normalized to zero hour (substrate use), 8 hr [1]	590 nm absorbance normalized to zero hour (substrate use), 9 hr [1]	590 nm absorbance normalized to zero hour (substrate use), 10 hr [1]	590 nm absorbance normalized to zero hour (substrate use), 11 hr [1]	Substrate use, 590 nm absorbance normalized to zero hour, 1 hr [1]	Substrate use, 590 nm absorbance normalized to zero hour, 5 hr [1]	Substrate use, 590 nm absorbance normalized to zero hour, 7 hr [1]	590 nm absorbance normalized to zero hour (substrate use), 1 hr [3]	590 nm absorbance normalized to zero hour (substrate use), 2 hr [3]	590 nm absorbance normalized to zero hour (substrate use), 3 hr [3]	590 nm absorbance normalized to zero hour (substrate use), 4 hr [3]	590 nm absorbance normalized to zero hour (substrate use), 5 hr [3]	590 nm absorbance normalized to zero hour (substrate use), 6 hr [3]	590 nm absorbance normalized to zero hour (substrate use), 7 hr [3]	590 nm absorbance normalized to zero hour (substrate use), 8 hr [3]	further results
O=C(O)C[C@@H](O)C(=O)O [D-Malic Acid]	1.49	2.03	2.06	2.25	2.19	3.00	3.06	3.20	3.52	1.49	2.63	2.87	2.26	2.49	2.54	2.71	2.61	1.75	1.82	1.98	590 nm absorbance normalized to zero hour (substrate use), 0 hr [1]: 1.00; Substrate use, 590 nm absorbance normalized to zero hour, 0 hr [1]: 1.00; 590 nm absorbance normalized to zero hour (substrate use), 0 hr [2]: 1.00; 590 nm absorbance normalized to zero hour (substrate use), 1 hr [2]: 2.26; 590 nm absorbance normalized to zero hour (substrate use), 2 hr [2]: 2.49; 590 nm absorbance normalized to zero hour (substrate use), 3 hr [2]: 2.54; 590 nm absorbance normalized to zero hour (substrate use), 4 hr [2]: 2.71; 590 nm absorbance normalized to zero hour (substrate use), 5 hr [2]: 2.61; 590 nm absorbance normalized to zero hour (substrate use), 6 hr [2]: 1.75; 590 nm absorbance normalized to zero hour (substrate use), 7 hr [2]: 1.82; 590 nm absorbance normalized to zero hour (substrate use), 8 hr [2]: 1.98; 590 nm absorbance normalized to zero hour (substrate use), 9 hr [2]: 1.95; 590 nm absorbance normalized to zero hour (substrate use), 10 hr [2]: 2.27; 590 nm absorbance normalized to zero hour (substrate use), 11 hr [2]: 2.21; 590 nm absorbance normalized to zero hour (substrate use), 0 hr [3]: 1.00; 590 nm absorbance normalized to zero hour (substrate use), 9 hr [3]: 1.95; 590 nm absorbance normalized to zero hour (substrate use), 10 hr [3]: 2.27; 590 nm absorbance normalized to zero hour (substrate use), 11 hr [3]: 2.21
OC[C@@H](O)[C@@H](O)[C@H](O)[C@H](O)CO [D-Mannitol]	0.96	0.94	1.00	0.99	0.34	0.74	0.79	0.74	0.64	0.96	0.91	0.81	0.20	0.27	0.32	0.34	0.40	0.42	0.44	0.47	590 nm absorbance normalized to zero hour (substrate use), 1 hr [4]: 0.20; 590 nm absorbance normalized to zero hour (substrate use), 2 hr [4]: 0.27; 590 nm absorbance normalized to zero hour (substrate use), 3 hr [4]: 0.32; 590 nm absorbance normalized to zero hour (substrate use), 4 hr [4]: 0.34; 590 nm absorbance normalized to zero hour (substrate use), 5 hr [4]: 0.40; 590 nm absorbance normalized to zero hour (substrate use), 6 hr [4]: 0.42; 590 nm absorbance normalized to zero hour (substrate use), 7 hr [4]: 0.44; 590 nm absorbance normalized to zero hour (substrate use), 8 hr [4]: 0.47; 590 nm absorbance normalized to zero hour (substrate use), 9 hr [4]: 0.52; 590 nm absorbance normalized to zero hour (substrate use), 10 hr [4]: 0.53; 590 nm absorbance normalized to zero hour (substrate use), 11 hr [4]: 0.57; 590 nm absorbance normalized to zero hour (substrate use), 9 hr [3]: 0.52; 590 nm absorbance normalized to zero hour (substrate use), 10 hr [3]: 0.53; 590 nm absorbance normalized to zero hour (substrate use), 11 hr [3]: 0.57
OC[C@H]1OC(O)[C@@H](O)[C@@H](O)[C@@H]1O (stereo partly drawn) [D-Mannose]	2.20	3.33	4.33	4.90	6.50	8.13	9.60	10.60	12.47	2.20	6.64	8.62	1.49	2.09	2.68	3.06	4.10	4.57	4.94	5.47	590 nm absorbance normalized to zero hour (substrate use), 0 hr [1]: 1.00; Substrate use, 590 nm absorbance normalized to zero hour, 0 hr [1]: 1.00; 590 nm absorbance normalized to zero hour (substrate use), 0 hr [4]: 1.00; 590 nm absorbance normalized to zero hour (substrate use), 1 hr [4]: 1.49; 590 nm absorbance normalized to zero hour (substrate use), 2 hr [4]: 2.09; 590 nm absorbance normalized to zero hour (substrate use), 3 hr [4]: 2.68; 590 nm absorbance normalized to zero hour (substrate use), 4 hr [4]: 3.06; 590 nm absorbance normalized to zero hour (substrate use), 5 hr [4]: 4.10; 590 nm absorbance normalized to zero hour (substrate use), 6 hr [4]: 4.57; 590 nm absorbance normalized to zero hour (substrate use), 7 hr [4]: 4.94; 590 nm absorbance normalized to zero hour (substrate use), 8 hr [4]: 5.47; 590 nm absorbance normalized to zero hour (substrate use), 9 hr [4]: 6.51; 590 nm absorbance normalized to zero hour (substrate use), 10 hr [4]: 6.80; 590 nm absorbance normalized to zero hour (substrate use), 11 hr [4]: 7.75; 590 nm absorbance normalized to zero hour (substrate use), 0 hr [3]: 1.00; 590 nm absorbance normalized to zero hour (substrate use), 9 hr [3]: 6.51; 590 nm absorbance normalized to zero hour (substrate use), 10 hr [3]: 6.80; 590 nm absorbance normalized to zero hour (substrate use), 11 hr [3]: 7.75
